{"source": "ChEMBL document CHEMBL5518174", "about": "(Eur J Med Chem, 2024)", "key": {"[1]": {"assay": "Downregulation of HDAC6 protein expression in human NCI-H1975 cells assessed as fold change at 0.05 uM incubated for 24 hrs by immunoblotting analysis (reference value: 1)", "type": "functional"}, "[2]": {"assay": "Toxicity in athymic nude BALB/c mouse xenografted with human NCI-H1975 cells assessed as effect on ALT level at 6 mg/kg, ip administered 5 times a week for 3 weeks and measured on day 22", "type": "organism-based", "conditions": "in vivo, 528 h, time 22 day"}, "[3]": {"assay": "Toxicity in athymic nude BALB/c mouse xenografted with human MDA-MB-231 cells assessed as effect on ALT level in serum at 3 mg/kg, ip administered 5 times a week for 7 weeks", "type": "organism-based", "conditions": "in vivo, 1176 h"}, "[4]": {"assay": "Toxicity in athymic nude BALB/c mouse xenografted with human MDA-MB-231 cells assessed as effect on BUN level in serum at 3 mg/kg, ip administered 5 times a week for 7 weeks", "type": "organism-based", "conditions": "in vivo, 1176 h"}, "[5]": {"assay": "Downregulation of HDAC11 protein expression in human MDA-MB-231 cells assessed as fold change at 0.1 uM incubated for 24 hrs by immunoblotting analysis (reference value: 1)", "type": "functional"}, "[6]": {"assay": "Downregulation of HDAC10 protein expression in human MDA-MB-231 cells assessed as fold change at 0.05 uM incubated for 24 hrs by immunoblotting analysis (reference value: 1)", "type": "functional"}, "[7]": {"assay": "Effect on HDAC4 protein expression in human MDA-MB-231 cells assessed as fold change at 0.05 uM incubated for 24 hrs by immunoblotting analysis (reference value: 1)", "type": "functional"}, "[8]": {"assay": "Effect on HDAC8 protein expression in human MDA-MB-231 cells assessed as fold change at 0.05 uM incubated for 24 hrs by immunoblotting analysis (reference value: 1)", "type": "functional"}, "[9]": {"biological_target": "T1, Protein deacetylase HDAC6 (Homo sapiens, UniProt Q9UBN7)", "T1 sequence (Q9UBN7 whole entry)": "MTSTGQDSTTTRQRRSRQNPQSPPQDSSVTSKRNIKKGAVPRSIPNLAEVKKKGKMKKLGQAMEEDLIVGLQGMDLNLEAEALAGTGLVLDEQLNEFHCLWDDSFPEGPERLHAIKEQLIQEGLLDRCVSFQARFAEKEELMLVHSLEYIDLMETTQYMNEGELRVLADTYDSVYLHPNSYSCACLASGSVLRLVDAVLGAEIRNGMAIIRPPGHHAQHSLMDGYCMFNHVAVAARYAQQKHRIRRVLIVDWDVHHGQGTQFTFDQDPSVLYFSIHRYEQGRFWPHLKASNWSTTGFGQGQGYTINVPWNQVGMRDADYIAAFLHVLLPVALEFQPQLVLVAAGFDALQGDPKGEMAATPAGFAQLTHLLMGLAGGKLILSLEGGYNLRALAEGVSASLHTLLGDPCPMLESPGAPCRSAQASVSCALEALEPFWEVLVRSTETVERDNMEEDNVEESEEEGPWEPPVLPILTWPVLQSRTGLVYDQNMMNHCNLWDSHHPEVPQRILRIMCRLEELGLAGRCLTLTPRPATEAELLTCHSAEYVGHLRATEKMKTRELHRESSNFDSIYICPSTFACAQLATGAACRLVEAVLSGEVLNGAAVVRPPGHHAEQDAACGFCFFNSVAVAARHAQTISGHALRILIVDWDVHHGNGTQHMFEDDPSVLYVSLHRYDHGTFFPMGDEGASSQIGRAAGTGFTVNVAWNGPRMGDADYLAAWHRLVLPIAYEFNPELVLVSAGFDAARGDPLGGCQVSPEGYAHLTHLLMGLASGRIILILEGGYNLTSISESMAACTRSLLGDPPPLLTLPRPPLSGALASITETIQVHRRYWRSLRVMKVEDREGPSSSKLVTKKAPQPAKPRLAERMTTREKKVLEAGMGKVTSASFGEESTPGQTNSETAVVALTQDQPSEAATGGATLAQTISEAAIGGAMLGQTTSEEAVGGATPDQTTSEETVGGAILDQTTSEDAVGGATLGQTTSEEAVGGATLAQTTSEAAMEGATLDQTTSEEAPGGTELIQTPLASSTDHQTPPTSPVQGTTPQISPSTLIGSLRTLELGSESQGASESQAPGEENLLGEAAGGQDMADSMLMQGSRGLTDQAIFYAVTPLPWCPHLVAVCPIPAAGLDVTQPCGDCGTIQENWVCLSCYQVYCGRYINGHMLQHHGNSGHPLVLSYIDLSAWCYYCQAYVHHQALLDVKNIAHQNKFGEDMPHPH", "assay": "Inhibition of recombinant human HDAC6 using acetylated luminogenic substrate incubated for 10 mins by ultra-glo recombinant firefly luciferase based luminescence assay"}, "[10]": {"assay": "Downregulation of HDAC6 protein expression in human MDA-MB-231 cells assessed as fold change at 0.05 uM incubated for 24 hrs by immunoblotting analysis (reference value: 1)", "type": "functional"}, "MDA-MB-231": {"tested_on": "MDA-MB-231", "assay": "Antitumor activity against human MDA-MB-231 cells xenografted in athymic nude BALB/c mouse assessed as reduction in tumor growth at 3 mg/kg, ip administered 5 times a week for 7 weeks by vernier caliper method", "type": "functional, organism-based"}, "[11]": {"assay": "Downregulation of HDAC2 protein expression in human NCI-H1975 cells assessed as fold change at 0.05 uM incubated for 24 hrs by immunoblotting analysis (reference value: 1)", "type": "functional"}, "[12]": {"biological_target": "T2, Polyamine deacetylase HDAC10 (Homo sapiens, UniProt Q969S8)", "T2 sequence (Q969S8 whole entry)": "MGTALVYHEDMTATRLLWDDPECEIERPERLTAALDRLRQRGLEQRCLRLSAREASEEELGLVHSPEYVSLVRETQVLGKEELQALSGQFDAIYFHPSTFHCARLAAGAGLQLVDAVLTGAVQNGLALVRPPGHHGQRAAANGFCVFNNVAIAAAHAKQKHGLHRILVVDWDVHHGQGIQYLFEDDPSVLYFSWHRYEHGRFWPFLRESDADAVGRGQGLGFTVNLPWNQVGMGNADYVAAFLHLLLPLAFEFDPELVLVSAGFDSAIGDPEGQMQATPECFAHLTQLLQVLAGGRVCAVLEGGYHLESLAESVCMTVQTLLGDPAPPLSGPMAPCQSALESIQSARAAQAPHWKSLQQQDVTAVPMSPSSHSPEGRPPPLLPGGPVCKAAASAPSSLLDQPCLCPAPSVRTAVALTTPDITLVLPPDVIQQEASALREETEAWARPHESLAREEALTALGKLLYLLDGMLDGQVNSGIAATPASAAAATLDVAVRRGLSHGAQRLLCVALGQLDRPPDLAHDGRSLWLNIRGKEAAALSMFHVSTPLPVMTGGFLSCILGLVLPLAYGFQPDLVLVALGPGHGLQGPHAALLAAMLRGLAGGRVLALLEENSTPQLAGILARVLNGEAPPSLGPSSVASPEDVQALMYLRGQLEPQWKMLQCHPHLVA", "assay": "Inhibition of recombinant human HDAC10 using acetylated luminogenic substrate incubated for 10 mins by ultra-glo recombinant firefly luciferase based luminescence assay"}, "[13]": {"assay": "Effect on HDAC11 protein expression in human NCI-H1975 cells assessed as fold change at 0.05 uM incubated for 24 hrs by immunoblotting analysis (reference value: 1)", "type": "functional"}}, "note": "The source made the active and inactive calls. The rule behind the calls is not given here.", "data": [{"smiles": "CCOc1ccc(-c2nc(C(=O)NCc3ccc(C(=O)NO)cc3)c3[nH]c(=O)n(-c4cccnc4OC)c3n2)cn1", "values": [{"measurement": "fold change (FC)", "setting": "[1]", "result": 0.6}, {"measurement": "Activity", "setting": "[2]", "result": "Non-Toxic"}, {"measurement": "Activity", "setting": "[3]", "result": "Non-Toxic"}, {"measurement": "Activity", "setting": "[4]", "result": "Non-Toxic"}, {"measurement": "fold change (FC)", "setting": "[5]", "result": 0.2}, {"measurement": "fold change (FC)", "setting": "[6]", "result": 0.89}, {"measurement": "fold change (FC)", "setting": "[7]", "result": 1.15}, {"measurement": "fold change (FC)", "setting": "[8]", "result": 1.7}, {"measurement": "IC50", "setting": "[9]", "result": 10.8, "unit": "nM"}, {"measurement": "fold change (FC)", "setting": "[10]", "result": 0.47}, {"measurement": "Activity", "setting": "MDA-MB-231", "result": "Active"}, {"measurement": "fold change (FC)", "setting": "[11]", "result": 0.77}, {"measurement": "IC50", "setting": "[12]", "result": 18.9, "unit": "nM"}, {"measurement": "fold change (FC)", "setting": "[13]", "result": 1.15}]}]}
